Entries after “also recorded” stand apart in the source; their conditions may differ. Where two headings read alike, the source gives them in different places.
Legend:
[1] = test system: isolated perfused cat heart (QT interval); experiment: QT interval prolongation in isolated perfused heart; conditions: concentrations from 1 to 20 μM, pacing cycle length 400 msec
Procedure: Comparative studies evaluating prolongation of the QT interval using quinidine, halofantrine, and desbutylhalofantrine were performed on isolated perfused animal hearts. […] The ability to treat malaria with this metabolite without causing cardiotoxicity greatly improves the safety of antimalarial treatment.
(§1) A comparison of the parent drug, halofantrine with the metabolite desbutylhalofantrine was conducted to determine which agent was primarily responsible for QT interval prolongation. The effects of halofantrine and its active metabolite (N-desbutylhalofantrine) on repolarization were examined in an isolated perfused heart model. […] In an attempt to further elucidate the mechanism for QT interval prolongation, the effects of racemic halofantrine, its stereoisomers and N-desbutylhalofantrine on repolarizing currents in isolated ventricular myocytes were studied using patch-clamp techniques.
The effects of halofantrine and its metabolite on repolarization were examined in the isolated perfused cat heart by the method of Woosley, et al. (JAMA 269:1532-1536 (1993)). Briefly, hearts were obtained from healthy, mature anesthetized cats and perfused in a Lagendorff apparatus maintained at 37° C. […] The AV node was destroyed by cautery to produce complete heart block and allow observations at slow cycle lengths. […]

Plasmodium falciparum = experiment: In vitro studies against various clones of Plasmodium falciparum; type: cell-based
Procedure: Dosage of 500 mg every six hours for three doses on day one with repeat of that dosage on day 7 for a total dosage of 3000 mg is appropriate for most treatment purposes in adults. However, total dosage range of 50 to 5000 mg can be given depending on the condition, age and size of the patient. Desbutylhalofantrine may also be given at dosage of 50 to 1000 mg as a prophylactic measure. Dosage may be given daily or one day per week. Again, dosage will be determined by the clinician in accord with the needs of the particular patient. When given as a prophylactic agent, the administration may be continued for several months.

malaria = conditions: teaching of U.S. Pat. No. 5,250,734 to Rossignol, et al; cited from earlier work
[2] = cited from earlier work; for arrhythmia torsades de pointes: in patients receiving the drug; for cardiotoxicity / potentially fatal arrhythmias: use for treatment of malaria
[3] = test system: delayed rectifier potassium channel; experiment: Block of repolarizing current (delayed rectifier potassium channel) in isolated ventricular myocytes, whole cell patch-clamp; type: cell-based; conditions: isolated feline myocytes
Procedure: as §1
Individual Cardiac Myocytes:
The cardiac electro-pharmacologic effects of halofantrine, its stereoisomers and N-desbutylhalofantrine on repolarizing currents such as the delayed rectifier potassium channel were studied in feline ventricular myocytes in vitro by the method described by Woosley, et al. (JAMA 269:1532-1536 (1993)). Briefly, rod-shaped and quiescent ventricular cells were obtained and used for electrophysiological recordings using the whole cell, single-suction pipette, voltage-clamp ("patch-clamp") technique. Computer-controlled voltage clamp pulses (duration 750 ms) were used to elicit currents. Current signals were directed to a computer for storage and data analysis. […]

Row | Structure (SMILES) | prolongation of the QT interval [1] | arrhythmia torsades de pointes [2] | other results
1 | CCCCNCCC(O)c1cc2c(Cl)cc(Cl)cc2c2cc(C(F)(F)F)ccc12 (centres unmarked) [desbutylhalofantrine] | did not prolong the QT interval even when concentrations were increased to twenty fold the concentration at which halofantrine resulted in prolongation of the QT interval; also recorded: had minimal effect on the QT interval relative to the baseline |  | potency relative to parent compound halofantrine against clones of Plasmodium falciparum (Plasmodium falciparum): approximately equipotent with the parent compound; effectiveness for treatment of malaria relative to halofantrine (malaria): less effective than halofantrine for treatment of malaria
2 | C=C[C@H]1C[N@@]2CC[C@H]1C[C@H]2[C@H](O)c1ccnc2ccc(OC)cc12 [quinine] |  | torsades de pointes has been seen in patients | 
3 | CCCCN(CCCC)CCC(O)c1cc2c(Cl)cc(Cl)cc2c2cc(C(F)(F)F)ccc12 (racemic) [halofantrine] | resulted in prolongation of the QT interval | torsades de pointes has been seen in patients | block of the delayed rectifier potassium channel [3]: produced a stereo-selective block of the delayed rectifier potassium channel; cardiotoxicity / potentially fatal arrhythmias [2]: can induce potentially fatal arrhythmias; cardiotoxicity / potentially fatal arrhythmias ([2]; listed as Halofantrine): has been shown to cause cardiotoxicity
4 | C=C[C@H]1C[N@@]2CC[C@H]1C[C@@H]2[C@@H](O)c1ccnc2ccc(OC)cc12 [quinidine] |  | torsades de pointes has been seen in patients | 
5 | CCN(CC)CCCC(C)Nc1ccnc2cc(Cl)ccc12 (centres unmarked) [chloroquine] |  | torsades de pointes has been seen in patients | 

— US5711966A, “Method of treating malaria with desbutylhalofantrine” (priority 1996, dated 1998)
